Results as given in PubChem BioAssay AID248 (DTP/NCI, 2004).
Toxic doses and inconclusive results are not listed. No stated cut-off is given here; in the data, active means T/C of 150% or more; inactive means T/C below 125%.

Tested on: L1210 leukemia ip in BDF1 mice, survival T/C
Test: NCI In Vivo Anticancer Drug Screen. Data for tumor model L1210 Leukemia (intraperitoneal) in B6D2F1 (BDF1) mice
Conditions: endpoint: mean survival time, higher = longer survival
In short: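 Transplanted-tumor mice were given test agent; controls received vehicle only. Survival readings from the two groups were divided (treated over control).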

[1] = dose: 100.0 mg/kg/injection, schedule: Q01DX009 (ip), vehicle: Klucel (hydroxypropylcellulose) (HPC)
[2] = dose: 100.0 mg/kg/injection, schedule: Q04DX003 (ip), vehicle: Klucel (hydroxypropylcellulose) (HPC)
[3] = dose: 200.0 mg/kg/injection, schedule: Q01DX009 (ip), vehicle: Klucel (hydroxypropylcellulose) (HPC)
[4] = dose: 200.0 mg/kg/injection, schedule: Q04DX003 (ip), vehicle: Klucel (hydroxypropylcellulose) (HPC)
[5] = dose: 400.0 mg/kg/injection, schedule: Q01DX009 (ip), vehicle: Klucel (hydroxypropylcellulose) (HPC)
[6] = dose: 400.0 mg/kg/injection, schedule: Q04DX003 (ip), vehicle: Klucel (hydroxypropylcellulose) (HPC)
[7] = dose: 100.0 mg/kg/injection, schedule: Q04DX003 (ip), vehicle: saline with Tween-80
[8] = dose: 200.0 mg/kg/injection, schedule: Q04DX003 (ip), vehicle: saline with Tween-80
[9] = dose: 400.0 mg/kg/injection, schedule: Q04DX003 (ip), vehicle: saline with Tween-80

Measured: T/C

C#CCOCC1CN(c2ccccc2)C(=O)O1 (centres undefined)
inactive: [1] 100 % of control | [2] 101 % of control | [3] 100 % of control | [4] 92 % of control | [5] 91 % of control | [6] 103 % of control

CCOC(=O)NC(=O)n1ncnc1N
inactive: dose: 100.0 mg/kg/injection, schedule: Q04DX003 (ip), vehicle: saline 108 % of control | dose: 200.0 mg/kg/injection, schedule: Q04DX003 (ip), vehicle: saline 103 % of control | dose: 400.0 mg/kg/injection, schedule: Q04DX003 (ip), vehicle: saline 94 % of control

Oc1ccccc1CNc1ccccc1
inactive: [2] 96 % of control | [4] 94 % of control | [6] 96 % of control

CC12CCCCC1C(C(N)=O)C(=O)O2 (centres undefined)
inactive: dose: 100.0 mg/kg/injection, schedule: Q01DX001 (ip), vehicle: saline 105 % of control | dose: 200.0 mg/kg/injection, schedule: Q01DX001 (ip), vehicle: saline 97 % of control | dose: 400.0 mg/kg/injection, schedule: Q01DX001 (ip), vehicle: saline 105 % of control

CC1CN(c2ccncc2N)CCN1c1ccc(Cl)cc1 (centres undefined)
inactive: [7] 110 % of control | [8] 105 % of control | [9] 105 % of control

ClCCN(CCCl)CCn1cnc2c(SCc3ccccc3)ncnc21
inactive: dose: 13.0 mg/kg/injection, schedule: Q01DX Z (ip), vehicle: carboxymethylcellulose (CMC) 103 % of control | dose: 20.0 mg/kg/injection, schedule: Q01DX Z (ip), vehicle: carboxymethylcellulose (CMC) 108 % of control | dose: 30.0 mg/kg/injection, schedule: Q01DX Z (ip), vehicle: carboxymethylcellulose (CMC) 105 % of control | dose: 45.0 mg/kg/injection, schedule: Q01DX Z (ip), vehicle: carboxymethylcellulose (CMC) 110 % of control

COC(OC)c1nc(SC)[nH]c(=O)c1C
inactive: dose: 100.0 mg/kg/injection, schedule: Q01DX009 (ip), vehicle: saline with Tween-80 88 % of control | [7] 105 % of control | dose: 200.0 mg/kg/injection, schedule: Q01DX009 (ip), vehicle: saline with Tween-80 89 % of control | [8] 116 % of control | dose: 400.0 mg/kg/injection, schedule: Q01DX009 (ip), vehicle: saline with Tween-80 88 % of control | [9] 112 % of control

CCC[CH2][Sn]([CH2]CCC)([CH2]CCC)[CH2]C(C)(C)c1ccccc1
inactive: dose: 75.0 mg/kg/injection, schedule: Q01DX001 (ip), vehicle: other 91 % of control

CCCCCCCCC/C(=N\N=C(N)N)c1ccccc1
inactive: dose: 15.0 mg/kg/injection, schedule: Q01DX Z (ip), vehicle: methylcellulose (MC) 94 % of control | dose: 30.0 mg/kg/injection, schedule: Q01DX Z (ip), vehicle: methylcellulose (MC) 96 % of control | dose: 50.0 mg/kg/injection, schedule: Q01DX Z (oral), vehicle: methylcellulose (MC) 89 % of control | dose: 60.0 mg/kg/injection, schedule: Q01DX Z (ip), vehicle: methylcellulose (MC) 90 % of control | dose: 60.0 mg/kg/injection, schedule: Q01DX Z (oral), vehicle: methylcellulose (MC) 102 % of control | dose: 120.0 mg/kg/injection, schedule: Q01DX Z (ip), vehicle: methylcellulose (MC) 108 % of control | dose: 120.0 mg/kg/injection, schedule: Q01DX Z (oral), vehicle: methylcellulose (MC) 98 % of control | dose: 240.0 mg/kg/injection, schedule: Q01DX Z (ip), vehicle: methylcellulose (MC) 96 % of control | dose: 400.0 mg/kg/injection, schedule: Q01DX Z (oral), vehicle: methylcellulose (MC) 89 % of control | dose: 480.0 mg/kg/injection, schedule: Q01DX Z (ip), vehicle: methylcellulose (MC) 113 % of control | dose: 1000.0 mg/kg/injection, schedule: Q01DX Z (ip), vehicle: methylcellulose (MC) 87 % of control | dose: 1500.0 mg/kg/injection, schedule: Q01DX Z (ip), vehicle: methylcellulose (MC) 100 % of control

O=C(Cc1ccccc1)Nc1cccc(Cl)c1
inactive: [1] 100 % of control | [3] 86 % of control | [5] 95 % of control
